System: HIV-1 LAI
Assay: microbe, parasite or virus in culture
Settings: for Combination Indices at % HIV Inhibition (Confidence Interval) 50% / Combination Indices at % HIV Inhibition (Confidence Interval) 75% / Combination Indices at % HIV Inhibition (Confidence Interval) 90% / Overall Result (combined anti-HIV effect): Compound 1 + named drug; for Combination Indices at % HIV Inhibition (Confidence Interval) 50% / Combination Indices at % HIV Inhibition (Confidence Interval) 75% / Combination Indices at % HIV Inhibition (Confidence Interval) 90%: 95% confidence interval in parentheses; for Overall Result (combined anti-HIV effect): all ratios, MT-2 cells, HIV-1 LAI
Method: Virus and cell lines. The T-cell lines, MT-2 and PM-1 were obtained through the AIDS Research and Reference Reagent Program, NIAID, and were contributed by Dr. D. Richman and Dr. R. Gallo, respectively. Both cell lines were cultured in RPMI 1640 medium supplemented with 10% fetal bovine serum, 2 mM L-glutamine and sub-cultured twice a week. The LAI strain of HIV-1 was obtained from the Fred Hutchinson Cancer Research Center, and the Bal strain was from NIH. Both virus stocks were amplified and titered in MT-2 cells (LAI) and PM-1 cells (Bal) using a virus infectivity assay.
Drug Susceptibility and Cytotoxicity Assays. For drug susceptibility assays, MT-2 cells were infected with HIV-1 LAI (or PM-1 cells with HIV-1 Bal) at an MOI of 0.005, and seeded into 96-well microtiter plates (0.1×10^6 cells/ml) containing serial dilutions of test compounds. […] Each drug ratio consisted of an array of 3-fold serial dilutions, and was performed in quadruplicate. The plates were incubated at 37° C./5% CO2. The MT-2 cells infected with HIV-1 LAI were incubated for 5 days. On day-five post-infection, 20 μl from each well was harvested and quantitated by a reverse transcriptase (RT) assay, or in samples involving non-nucleoside RT inhibitors, an MTS assay. The PM-1 cells infected with HIV-1 Bal and used for studying the combinations with CCR5 inhibitors were incubated for six days. On day-six post-infection, 20 μl from each well was harvested, 20- and 50-fold diluted and quantitated by p24 assay. Cytotoxicity assays were performed using uninfected cells, exposed to the same drug combinations, and incubated for six days. Cell viability was determined by an MTS assay. The CC50 values were calculated by using the exponential form of the median effect equation as mentioned below for calculation of EC50.
Analysis of Drug Combination Effects. For determination of CI values, drugs were diluted in a fixed ratio and multiple ratios were analyzed. The drug serial dilutions spanned a range of concentrations near the EC50 value of each compound, so that equivalent antiviral activities could be compared. Concentration-response curves were estimated for each individual drug and every combination using the median-effect equation. The equation was fit using a nonlinear regression routine (Proc Nlin) in PC SAS version 8.01 (SAS Institute Inc., SAS Version 8.01, Cary, N.C.: SAS Institute Inc., 1990).
In this equation, Fa stands for “fraction affected,” and represents the fraction of the viral load that has been inactivated. […] ED50 is drug concentration that is expected to reduce the amount of virus by 50%, and m is a parameter that reflects the slope of the concentration-response curve.
To assess antiviral effects of different drug combination treatments, combination indices (CIs) were calculated according to Chou and Rideout. The combination index was computed as CI=[D]1/[Dm]1+[D]2/[Dm]2
In this equation [Dm]1 and [Dm]2 are the concentrations of drugs that would individually produce a specific level of effect, while [D]1 and [D]2 are the concentrations of drugs in combination that would produce the same level of effect.
Theoretically, additivity is implied if the CI is equal to one, synergy if the CI is less than one, and antagonism if the CI is greater than one. […] At best, we can construct a range that contains the likely values for the CI, given the noise in the data. In this report, these ranges are reported in parentheses next to each point estimate of the CI. […] If the range fell entirely above 1.0, we would infer antagonistic behavior. If the range were to include 1.0, we would infer additivity.
In carrying out the combination experiments below, the EC50 for Compound 1 and each comparator compound was determined during the course of each study, and used in the subsequent data analysis.

[1] = EC50 ratio 1:1 (Compound 1:comparator)
[2] = EC50 ratio 1:2.5 (Compound 1:comparator)
[3] = EC50 ratio 2.5:1 (Compound 1:comparator)
[4] = Human immunodeficiency virus 1, MT2, 120 h

Row | Compound | Combination Indices at % HIV Inhibition (Confidence Interval) 50% [1] | Combination Indices at % HIV Inhibition (Confidence Interval) 75% [1] | Combination Indices at % HIV Inhibition (Confidence Interval) 50% [2] | Combination Indices at % HIV Inhibition (Confidence Interval) 75% [2] | Combination Indices at % HIV Inhibition (Confidence Interval) 90% [2] | Combination Indices at % HIV Inhibition (Confidence Interval) 50% [3] | Combination Indices at % HIV Inhibition (Confidence Interval) 75% [3] | Combination Indices at % HIV Inhibition (Confidence Interval) 90% [3] | Overall Result (combined anti-HIV effect) | EC50 [4] [nM] | Combination Indices at % HIV Inhibition (Confidence Interval) 90% [1] | EC50 (LAI) [nM] | Overall Result (combined anti-HIV effect) (listed as efavirenz)
1 | Cc1cccc(C)c1OCC(=O)N[C@@H](Cc1ccccc1)[C@@H](O)C[C@H](Cc1ccccc1)NC(=O)[C@H](C(C)C)N1CCCNC1=O [Lopinavir, lopinavir] | 0.47 (0.38, 0.56) | 0.66 (0.48, 0.84) | 0.89 (0.73, 1.05) | 0.90 (0.67, 1.13) | 1.00 (0.60, 1.40) | 0.29 (0.25, 0.33) | 0.37 (0.30, 0.44) | 0.51 (0.37, 0.65) | Additive- | 4 | – | – | –
2 | Cc1c(O)cccc1C(=O)N[C@@H](CSc1ccccc1)[C@H](O)CN1C[C@H]2CCCC[C@H]2C[C@H]1C(=O)NC(C)(C)C [Nelfinavir, nelfinavir] | 0.39 (0.34, 0.44) | 0.47 (0.39, 0.56) | 0.41 (0.32, 0.50) | 0.81 (0.57, 1.05) | 1.61 (0.84, 2.37) | 0.12 (0.09, 0.15) | 0.32 (0.22, 0.42) | 0.87 (0.38, 1.35) | Additive- | 3 | 0.58 (0.41, 0.74) | – | –
3 | Nc1nc(=O)n([C@@H]2CS[C@H](CO)O2)cc1F [Emtricitabine, emtricitabine] | 0.42 (0.35, 0.50) | 0.49 (0.37, 0.61) | 0.19 (0.15, 0.22) | 0.35 (0.26, 0.44) | 0.67 (0.36, 0.99) | 0.11 (0.09, 0.12) | 0.26 (0.21, 0.31) | 0.67 (0.44, 0.89) | Synergistic | 25 | – | – | –
4 | enfuvirtide | 0.47 (0.40, 0.54) | 0.53 (0.42, 0.65) | 0.48 (0.37, 0.60) | 0.60 (0.40, 0.80) | 0.75 (0.35, 1.15) | 0.35 (0.29, 0.40) | 0.47 (0.37, 0.57) | 0.63 (0.40, 0.86) | Synergistic | – | 0.60 (0.39, 0.81) | 1 | –
5 | COc1cnc(-n2cnc(C)n2)c2[nH]cc(C(=O)C(=O)N3CCN(C(=O)c4ccccc4)CC3)c12 [Compound 1, 1-Benzoyl-4-[2-[4-methoxy-7-(3-methyl-1H-1,2,4-triazol-1-yl)-1H-pyrrolo[2,3-c]pyridin-3-yl]-1,2-dioxoethyl]-piperazine] | – | – | – | – | – | – | – | – | – | 0.1 to 0.3 | – | – | –
6 | O=c1[nH]cnc2c1ncn2[C@H]1CC[C@@H](CO)O1 [Didanosine, didanosine] | 0.31 (0.29, 0.32) | 0.16 (0.15, 0.17) | 0.27 (0.23, 0.31) | 0.31 (0.24, 0.38) | 0.35 (0.23, 0.48) | 0.15 (0.11, 0.19) | 0.31 (0.22, 0.40) | 0.65 (0.31, 0.98) | Synergistic | 652 | 0.08 (0.08, 0.09) | – | –
7 | CC(C)c1nc(CN(C)C(=O)N[C@H](C(=O)N[C@@H](Cc2ccccc2)C[C@H](O)[C@H](Cc2ccccc2)NC(=O)OCc2cncs2)C(C)C)cs1 [Ritonavir, ritonavir] | 0.60 (0.49, 0.72) | 0.61 (0.45, 0.77) | 0.54 (0.45, 0.63) | 0.58 (0.44, 0.71) | 0.73 (0.46, 1.00) | 0.23 (0.20, 0.26) | 0.20 (0.17, 0.24) | 0.19 (0.14, 0.24) | Synergistic | 7 | 0.70 (0.41, 0.99) | – | –
8 | Cc1cn([C@H]2C=C[C@@H](CO)O2)c(=O)[nH]c1=O [Stavudine, stavudine] | 0.52 (0.40, 0.64) | 0.60 (0.41, 0.80) | 0.38 (0.31, 0.45) | 0.37 (0.28, 0.46) | 0.40 (0.23, 0.56) | 0.69 (0.51, 0.88) | 0.78 (0.49, 1.07) | 0.92 (0.36, 1.48) | Moderate- | 72 | 0.75 (0.36, 1.14) | – | –
9 | O=C1Nc2ccc(Cl)cc2[C@@](C#CC2CC2)(C(F)(F)F)O1 [Efavirenz, efavirenz] | 0.70 (0.50, 0.89) | – | 0.47 (0.28, 0.65) | 0.46 (0.21, 0.70) | 0.45 (0.06, 0.83) | 0.52 (0.36, 0.69) | 0.39 (0.21, 0.57) | 0.30 (0.08, 0.51) | Synergistic | 1 | 0.32 (0.13, 0.50) | – | synergistic
10 | COC(=O)N[C@H](C(=O)N[C@@H](Cc1ccccc1)[C@@H](O)CN(Cc1ccc(-c2ccccn2)cc1)NC(=O)[C@@H](NC(=O)OC)C(C)(C)C)C(C)(C)C [Atazanavir, atazanavir] | 0.53 (0.46, 0.60) | – | – | 0.49 (0.29, 0.69) | 1.17 (0.38, 1.95) | 0.34 (0.26, 0.42) | 0.56 (0.38, 0.74) | 0.97 (0.46, 1.48) | Additive- | 0.7 | 0.90 (0.64, 1.17) | – | –
